Patent publication US12398097B2, “WDR5-MYC inhibitors” (Vanderbilt University, priority 2019, dated 2025)

molecular target: WDR5 (Homo sapiens, UniProt P61964); experiment: Competition-based fluorescence polarization anisotropy assay; settings: binding to WDR5; displacement of FITC-labeled small molecule probe (analogous to Example J2 or HCH-25) or peptide probe FITC-AHx-SEEEIDVVSV; pH 6.0; Ki converted from IC50
Method in brief: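 Ki values derive from displacement of either a fluorescent small-molecule probe or a FITC-peptide probe from WDR5, monitored by fluorescence polarization. Assay run at pH 6.0 in 200 mM phosphate with 300 mM NaCl, 0.5 mM TCEP and 0.1% Chaps.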

| Ki [nM] | SMILES |
| --- | --- |
| 240 | CCS(=O)(=O)c1cc(Cl)cc(NS(=O)(=O)c2cc(Br)cc(Cl)c2O)c1O [Example S21, 5-Bromo-3-Chloro-N-(5-chloro-3-(ethylsulfonyl)-2-hydroxyphenyl)-2-hydroxybenzenesulfonamide] |
| 20600 | CCN(CC)CCS(=O)(=O)c1cc(Cl)cc(NS(=O)(=O)c2cc(Br)ccc2OC)c1 [Example S46, 5-Bromo-N-(3-chloro-5-((2-(diethylamino)ethyl)sulfonyl)phenyl)-2-methoxybenzenesulfonamide] |
| 1030 | CS(=O)(=O)c1cc(NS(=O)(=O)c2cc(Br)ccc2O)cc(C2CC2)c1 [Example S9, 5-Bromo-N-(3-cyclopropyl-5-(methylsulfonyl)phenyl)-2-hydroxybenzenesulfonamide] |
| 390 | O=[N+]([O-])c1cc(Cl)cc(NS(=O)(=O)c2cc(Br)cc(OC(F)(F)F)c2O)c1O [NE9, 5-Bromo-N-(5-chloro-2-hydroxy-3-nitrophenyl)-2-hydroxy-3-(trifluoromethoxy)benzenesulfonamide] |
| 20 | O=C(O)c1cc(S(F)(F)(F)(F)F)cc(NS(=O)(=O)c2cc(Br)cc(Cl)c2O)c1O [Example S64, 3-((5-Bromo-3-chloro-2-hydroxyphenyl)sulfonamido)-2-hydroxy-5-(pentafluoro-λ^6-sulfaneyl)benzoic acid] |
| 320 | CCCc1cc(Br)cc(S(=O)(=O)Nc2cc(Cl)cc(C(=O)O)c2O)c1O [HCH-17, 3-((5-Bromo-2-hydroxy-3-propylphenyl)sulfonamido)-5-chloro-2-hydroxybenzoic acid] |
| 990 | CNC(=O)c1cc(C2(C#N)CCC2)cc(NS(=O)(=O)c2cc(Br)cc3c2OCC3)c1O [SN-9, 3-((5-bromo-2,3-dihydrobenzofuran)-7-sulfonamido)-5-(1-cyanocyclobutyl)-2-hydroxy-N-methylbenzamide] |
| 60 | CCc1cc(NS(=O)(=O)c2cc(Br)ccc2O)c(O)c(C(=O)O)c1 [HCH-18, 3-((5-Bromo-2-hydroxyphenyl)sulfonamido)-5-ethyl-2-hydroxybenzoic acid] |
| 170 | CS(=O)(=O)c1cc(Cl)cc(NS(=O)(=O)c2cc(Br)cc(Cl)c2O)c1 [Example S8, 5-Bromo-3-chloro-N-(3-chloro-5-(methylsulfonyl)phenyl)-2-hydroxybenzenesulfonamide] |
| 240 | COC1CC(NC(=O)c2cc(OC(F)(F)F)cc(NS(=O)(=O)c3cc(Br)cc(Cl)c3O)c2O)C1 (stereo not shown) [HCH-60, 3-((5-Bromo-3-chloro-2-hydroxyphenyl)sulfonamido)-2-hydroxy-N-(3-methoxycyclobutyl)-5-(trifluoromethoxy)benzamide] |
| 850 | CS(=O)(=O)c1cc(Cl)cc(NS(=O)(=O)c2cc(Br)cc3c2OCC3)c1O [Example S55, 5-Bromo-N-(5-chloro-2-hydroxy-3-(methylsulfonyl)phenyl)-2,3-dihydrobenzofuran-7-sulfonamide] |
| 4300 | CS(=O)(=O)c1cc(S(F)(F)(F)(F)F)cc(NS(=O)(=O)c2ccc(Br)cc2O)c1O [Example S20, 4-Bromo-2-hydroxy-N-(2-hydroxy-3-(methylsulfonyl)-5-(pentafluoro-λ6-sulfaneyl)phenyl)benzenesulfonamide] |
| 50 | N#CC1(c2cc(NS(=O)(=O)c3cc(Br)cc4c3OCC4)c(O)c(C(=O)O)c2)CCC1 [SN-10, 3-((5-bromo-2,3-dihydrobenzofuran)-7-sulfonamido)-5-(1-cyanocyclobutyl)-2-hydroxybenzoic acid] |
| 310 | COc1ccc(Br)cc1S(=O)(=O)Nc1cc(C2(C#N)CCC2)cc(S(C)(=O)=O)c1O [Example S59, 5-Bromo-N-(5-(1-cyanocyclobutyl)-2-hydroxy-3-(methylsulfonyl)phenyl)-2-methoxybenzenesulfonamide] |
| 15500 | CNS(=O)(=O)c1cc(Cl)cc(NS(=O)(=O)c2cc(Br)ccc2O)c1O [Example S29, 5-bromo-N-(5-chloro-2-hydroxy-3-(N-methylsulfamoyl)phenyl)-2-hydroxybenzenesulfonamide] |
| 10 | N#CC1(c2cc(NS(=O)(=O)c3cc(Br)cc(Cl)c3O)cc(C(=O)O)c2)CCC1 [Example S71, 3-((5-Bromo-3-chloro-2-hydroxyphenyl)sulfonamido)-5-(1-cyanocyclobutyl)benzoic acid] |

More lines, now with the values behind:

| SMILES | Ki [nM] |
| --- | --- |
| CNC(=O)c1cc(C2CC2)cc(NS(=O)(=O)c2cc(Br)cc(F)c2O)c1O [Example J98, 3-((5-Bromo-3-fluoro-2-hydroxyphenyl)sulfonamido)-5-cyclopropyl-2-hydroxy-N-methylbenzamide] | 2320 |
| C[C@@H](Nc1ccc(Br)cc1S(=O)(=O)Nc1cc(C2CC2)cc(C(=O)O)c1O)C1CC1 [Example J77, (R)-3-((5-Bromo-2-((1-cyclopropylethyl)amino)phenyl)sulfonamido)-5-cyclopropyl-2-hydroxybenzoic acid] | 2870 |
| CCc1cc(Br)cc(S(=O)(=O)Nc2cc(C3(C#N)CCC3)cc(C(=O)NC)c2O)c1O [Example J213, 3-((5-Bromo-3-ethyl-2-hydroxyphenyl)sulfonamido)-5-(1-cyanocyclobutyl)-2-hydroxy-N-methylbenzamide] | 12200 |
| O=S(=O)(Nc1cc(Cl)ccc1O)c1cccc(Br)c1 [HCH-1-9-4re, 3-Bromo-N-(5-chloro-2-hydroxyphenyl)benzenesulfonamide] | 36100 |
| CNC(=O)c1cc(C2CC2)cc(NS(=O)(=O)c2cc(Br)cc(Cl)c2O)c1O [Example J95, 3-((5-Bromo-3-chloro-2-hydroxyphenyl)sulfonamido)-5-cyclopropyl-2-hydroxy-N-methylbenzamide] | 390 |
| CNC(=O)c1cc(Cl)cc(NS(=O)(=O)c2cc(Br)ccc2O)c1O [Example J14, 3-((5-Bromo-2-hydroxyphenyl)sulfonamido)-5-chloro-2-hydroxy-N-methylbenzamide] | 370 |
| COCCNC(=O)c1cc(F)cc(NS(=O)(=O)c2cc(Br)ccc2O)c1O [Example J110, 3-((5-Bromo-2-hydroxyphenyl)sulfonamido)-5-fluoro-2-hydroxy-N-(2-methoxyethyl)benzamide] | 2260 |
| CC(C)[S+]([O-])c1cc(Cl)cc(NS(=O)(=O)c2cc(Br)cc(Cl)c2O)c1O (stereo not shown) [Example S23.2, 5-Bromo-3-chloro-N-(5-chloro-2-hydroxy-3-(isopropylsulfinyl)phenyl)-2-hydroxybenzenesulfonamide] | 330 |
| CN(CCO)C(=O)c1cc(C2CC2)cc(NS(=O)(=O)c2cc(Br)ccc2O)c1O [Example J82, 3-((5-Bromo-2-hydroxyphenyl)sulfonamido)-5-cyclopropyl-2-hydroxy-N-(2-hydroxyethyl)-N-methylbenzamide] | 3760 |
| O=C(NC1CCOC1)c1cc(C2CC2)cc(NS(=O)(=O)c2cc(Br)ccc2O)c1O (stereo not shown) [Example J90, 3-((5-Bromo-2-hydroxyphenyl)sulfonamido)-5-cyclopropyl-2-hydroxy-N-(tetrahydrofuran-3-yl)benzamide] | 740 |
| COCCNC(=O)c1c(O)c(NS(=O)(=O)c2cc(Br)cc(Cl)c2O)cc(C2CC2)c1F [Example J147, 3-((5-Bromo-3-chloro-2-hydroxyphenyl)sulfonamido)-5-cyclopropyl-6-fluoro-2-hydroxy-N-(2-methoxyethyl)benzamide] | 230 |
| COCCNC(=O)c1cc(NS(=O)(=O)c2cc(Br)cc(Cl)c2O)cc(C2CC2)c1F [Example J152, 5-((5-Bromo-3-chloro-2-hydroxyphenyl)sulfonamido)-3-cyclopropyl-2-fluoro-N-(2-methoxyethyl)benzamide] | 320 |
| CNC(=O)c1cc(C2(C#N)CCC2)cc(NS(=O)(=O)c2cc(Br)cc(OC(F)(F)F)c2O)c1O [Example J214, 3-((5-Bromo-2-hydroxy-3-(trifluoromethoxy)phenyl)sulfonamido)-5-(1-cyanocyclobutyl)-2-hydroxy-N-methylbenzamide] | 390 |
| COc1cc(Cl)c(Br)cc1S(=O)(=O)Nc1cc(C2(C#N)CCC2)cc(C(=O)O)c1O [Example J207, 3-((5-Bromo-4-chloro-2-methoxyphenyl)sulfonamido)-5-(1-cyanocyclobutyl)-2-hydroxybenzoic acid] | 220 |
| CNC(=O)c1cc(Cl)cc(NS(=O)(=O)c2cc(Br)ccc2OC)c1O [Example J44, 3-((5-Bromo-2-methoxyphenyl)sulfonamido)-5-chloro-2-hydroxy-N-methylbenzamide] | 1260 |
| COc1ccc(Br)cc1S(=O)(=O)Nc1cc(N2CCOCC2)cc(C(=O)O)c1O [Example J194, 3-((5-Bromo-2-methoxyphenyl)sulfonamido)-2-hydroxy-5-morpholinobenzoic acid] | 10300 |
| O=C(NCC1CCCO1)c1cc(Cl)cc(NS(=O)(=O)c2cc(Br)ccc2O)c1O (stereo not shown) [Example J25, 3-((5-Bromo-2-hydroxyphenyl)sulfonamido)-5-chloro-2-hydroxy-N-((tetrahydrofuran-2-yl)methyl)benzamide] | 230 |
| O=C(NC1COC1)c1cc(NS(=O)(=O)c2cc(Br)cc(Cl)c2O)cc(C2CC2)c1F [Example J155, 5-((5-Bromo-3-chloro-2-hydroxyphenyl)sulfonamido)-3-cyclopropyl-2-fluoro-N-(oxetan-3-yl)benzamide] | 330 |
| O=C(NCCN1CCOCC1)c1cc(OC(F)(F)F)cc(NS(=O)(=O)c2cc(Br)ccc2O)c1O [Example J164, 3-((5-Bromo-2-hydroxyphenyl)sulfonamido)-2-hydroxy-N-(2-morpholinoethyl)-(trifluoromethoxy)benzamide] | 1440 |
| O=C(NC1COC1)c1cc(C2CC2)cc(NS(=O)(=O)c2cc(Br)ccc2O)c1O [Example J93, 3-((5-Bromo-2-hydroxyphenyl)sulfonamido)-5-cyclopropyl-2-hydroxy-N-(oxetan-3-yl)benzamide] | 540 |
| COc1ccc(Br)cc1S(=O)(=O)Nc1cc(Cl)cc(C(=O)N2CC(S(C)(=O)=O)C2)c1O [Example J64, 5-Bromo-N-(5-chloro-2-hydroxy-3-(3-(methylsulfonyl)azetidine-1-carbonyl)phenyl)-2-methoxybenzenesulfonamide] | 4150 |
